Series [1] deals with CAT. As to the kind of experiment: Bubbling liberation (oxygen release) with CAT. The conditions noted are these: CAT + H2O2, Fig. 2g. In kind it is biochemical. As to the method: (§1) The effects of bubbling with DMSO, HTPEB, and KDS12025 were evaluated. To measure the degree of bubbling quantitatively, the reactions were conducted in sealed tubes connected to an inverted cylinder submerged in a water bath to record the time and volume of the bubbles produced. […] Vehicle, HTPEB, and KDS12025 were added to assess their effects. A similar procedure was followed for Hb.

The nature of series [2]: PAMPA BBB permeability. The conditions noted are these: for Papp at 4 h, 50 μM: PAMPA, pH 7.4, 50 μM. In kind it is in vitro ADME. As to the method:
A parallel artificial membrane permeability assay (PAMPA)^70 was performed to validate the blood-brain barrier permeability of KDS12025. The procedure began by preparing a donor solution of the compound in a pH 7.4 donor buffer. This solution was added to the wells of a deep well plate, followed by the addition of a high-sensitivity UV plate filled with donor buffer to serve as the blank sample. An initial sample for the UV plate was taken to establish a baseline reading. The PAMPA sandwich was then assembled by adding the donor plate mixture to the donor plate well, followed by placing a BBB-lipid coated membrane on top and an acceptor plate filled with acceptor buffer. This setup was incubated at 25 °C for a specific duration to allow diffusion. Post-incubation, a sample from the acceptor plate was taken, and the UV absorbance was measured to determine the permeated amount of the test compound. The permeability was then calculated using the PAMPA explorer program, considering the initial donor concentration and the acceptor's concentration after incubation.

Series [3] in a line: Solubility in aqueous solutions (statement). In kind it is physicochemical.
In series [4] the target is T1, Hb (Homo sapiens, UniProt P68871).
T1 construct: purchased Sigma-Aldrich H7379
T1 sequence (P68871 2-147 limits assumed): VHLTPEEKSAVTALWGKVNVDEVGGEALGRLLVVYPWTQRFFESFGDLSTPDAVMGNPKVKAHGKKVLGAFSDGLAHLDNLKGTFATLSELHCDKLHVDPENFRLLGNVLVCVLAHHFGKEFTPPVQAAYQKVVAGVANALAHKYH
T1 sequence (P69905 2-142 partner limits assumed): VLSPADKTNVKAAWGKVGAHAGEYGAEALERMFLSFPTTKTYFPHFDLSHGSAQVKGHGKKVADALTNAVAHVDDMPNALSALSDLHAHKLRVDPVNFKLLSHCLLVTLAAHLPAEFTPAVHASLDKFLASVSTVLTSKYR
Nature of the series: Bubbling liberation (oxygen release) with Hb. In kind it is biochemical. The conditions noted are these: Hb + H2O2, Fig. 2g. The method, then: as §1

Series [5] has as its target T2, HRP (Armoracia rusticana, UniProt P00433).
T2 sequence (P00433 31-353): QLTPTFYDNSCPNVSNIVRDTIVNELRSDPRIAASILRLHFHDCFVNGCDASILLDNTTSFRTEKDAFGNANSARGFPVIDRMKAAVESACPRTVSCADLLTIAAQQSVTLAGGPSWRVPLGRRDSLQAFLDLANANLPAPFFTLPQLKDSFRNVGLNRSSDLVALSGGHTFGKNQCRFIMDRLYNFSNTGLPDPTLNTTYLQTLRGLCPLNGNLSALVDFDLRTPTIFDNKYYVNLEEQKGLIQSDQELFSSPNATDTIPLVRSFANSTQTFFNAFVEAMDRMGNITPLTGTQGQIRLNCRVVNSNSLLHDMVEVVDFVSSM
As to the kind of experiment: Bubbling liberation (oxygen release) with HRP. In kind it is biochemical, horseradish. To be noted: HRP + H2O2, Fig. 2g. As to the method:
as §1

Series [6] has as its target T2, HRP. As to the kind of experiment: ROS-Glo H2O2 assay with HRP. Format: biochemical, horseradish. The conditions noted are these: for fold change in H2O2 decomposition by HRP: 30-min window, Fig. 2b. The method, then: Hb (Sigma‒Aldrich, H7379), H2O2 (Sigma‒Aldrich, H1009), and Amplex Red reagents (Invitrogen, A12222) were obtained for the study. A 4 μM H2O2 solution was prepared in 50 mM sodium phosphate buffer (pH 7.2). Then, 49 μl of this mixture was mixed with 1 μl of the test compound in DMSO or distilled water. The mixture was combined with an assay mixture of Amplex Red reagent (20 mM stock to 0.1 mM) and HRP (200 U/ml stock to 0.2 U/ml) and added to the wells at 50 μl/well. After a 60-min incubation at 37 °C, resorufin production was quantified via a microplate fluorescence reader (SpectraMax iD5, Molecular Devices) at ex/em = 535/580 nm. […] For the ROS-Glo assay, the H2O2 substrate solution and ROS-Glo detection solution were prepared according to the manufacturer’s instructions. 10 μM H2O2 and drugs were prepared as in the Amplex Red assay, with HRP, Hb, CAT, or GPx added as needed. The mixture was added to the wells at 100 μl/well and incubated for 60 min at 37 °C. H2O2 substrate solution was added, and the mixture was incubated at room temperature for 30 min. After the H2O2 substrate solution was added and incubated at room temperature for 30 min, the ROS-Glo detection solution was added, and the mixture was incubated for 15 min. Luminescence was measured via iD5 microplate readers. […] The U/ml was calculated on the basis of the amount of H2O2 reduced by Hb during the reaction, using μg/ml and U/mg.
To evaluate the extent of peroxidase function facilitation by HTPEB (1 μM) and KDS12025 (1 μM) in HRP (0.2 U/ml) and Hb (10 μg/ml), we used the ROS-Glo assay over 30 and 60 min. The fold change was calculated by dividing the delta values during the 30-min reaction for the vehicle over drug conditions.

Series [7] can be described thus: DPPH radical scavenging assay. To be noted: Fig. S1e. As to the method: In a 96-well microplate, samples (20 μl) at concentrations ranging from 0.1 to 100 μM were mixed with 80 μL of 50 mM sodium phosphate buffer (pH 7.2) and 100 μL of DPPH (1,1-diphenyl-2-picrylhydrazyl) solution (250 μM in methanol) and incubated for 30-min in the dark. Each sample was quantified using a microplate fluorescence reader (SpectraMax iD5, Molecular Devices) at absorbance (517 nm). Edaravone was used as a positive control. The radical scavenging activity was estimated using the following equation: sample absorbance / control absorbance ×100. The dose-response curve, EC50 for the DPPH, was calculated and determined by fitting data with GraphPad Prism software. The fitting method had no special handling of outliers.

Setting [8] is: read-out: BCS code: permeability classification.

Each structure is given as a SMILES string. pEC50, pIC50: −log10 of the molar value. Like-named read-outs stand apart in the source and are kept apart here.

Turning to `O=C(O)c1cc(NCCc2ccc(C(F)(F)F)cc2)ccc1O` [HTPEB, 2-hydroxy-5-[2-(4-trifluoromethyl-phenyl)-ethylamino]-benzoic acid, reference compound], the entries for the “bubbles per 1 × 1 mm^2 area” value in series [1], in series [4] and in series [5] were 84.5±9.957, 12.5±3.969 and 9.0±1.0, respectively. Further, the “BCS code: CNS +/- classification” value in series [2] (50 μM, 4 h) is on record as “- (< 10)”. Moreover, in series [2] (50 μM, 4 h, U.V), the “Pe (PAMPA BBB permeability)” value is 3.56 10^-6cm/sec. Further, the Papp at 4 h, 50 μM in series [2] (setting [8]) is more than 4 nm/s. Besides, the “solubility in water / aqueous solutions” value in series [3] was “poor”. In addition, the pEC50 in series [6] (Fig. 1e, read-out: EC50, ROS-Glo assay with replenishing HRP) was 5.60. The “tau value, reaction time-response of HRP with HTPEB” value in series [6] (Fig. S1b) was found to be 8.57 min. Also, in series [6], the “fold change in H2O2 decomposition by HRP” value was 3.769±0.7911. For the same compound, the pIC50 in series [7] was 4.72.
Regarding `CNc1ccc(NCCc2ccccc2OC)cc1.Cl` [KDS12025, N^1-(2-methoxyphenethyl)-N^4-methylbenzene-1,4-diamine hydrochloride salt], the “bubbles per 1 × 1 mm^2 area” value in series [1] stood at 92.0±6.622; in series [4], 13.5±2.533; in series [5], 7.3±0.947. Besides, in series [2] (50 μM, 4 h), the “BCS code: CNS +/- classification” value is on record as “+ (> 10)”. In addition, the Papp at 4 h, 50 μM in series [2] (U.V, read-out: Pe (PAMPA BBB permeability)) is 674 nm/s; in series [2] (setting [8]) it was more than 4 nm/s. The “solubility in water / aqueous solutions” value in series [3] is recorded as “highly water soluble”. For the same compound, in series [6], the “fold change in H2O2 decomposition by HRP” value stood at 5.642±0.5747. Further, the pIC50 in series [7] is 3.81.

The record behind these values is article PMC12373846, “Hemoglobin as a pseudoperoxidase and drug target for oxidative stress-related diseases” (Signal Transduction and Targeted Therapy, 2025).
